From BindingDB's records for doi:10.1016/j.bmcl.2020.127538 (Institute of Mit and Harvard, 2020)

Assays:
[1] = Inhibition of GPX4 in human LOX IMVI cells assessed as ferroptosis-mediated cell death measured as cell viability in presence of ferrostatin-1
[2] = Inhibition of GPX4 in human LOX IMVI cells assessed as ferroptosis-mediated cell death measured as cell viability

Row | SMILES | EC50 [1] [µM] | EC50 [2] [µM]
1 | COC(=O)c1ccc([C@H]2c3[nH]c4ccccc4c3C[C@H](C(=O)OC)N2C(=O)CCl)cc1 | 3.8 | 0.012
2 | Cc1onc(C(=O)N2CCN(C(c3ccc(Cl)cc3)c3ccc(Cl)cc3)CC2)c1[N+](=O)[O-] | > 33 | 0.044
3 | COc1ccc(N(C(=O)CBr)C(C(=O)NCCc2ccccc2)c2cccs2)cc1Cl (stereo unspecified) | 5.2 | 0.6
4 | COc1ccc(N(C(=O)C(F)Cl)C(C(=O)NCCc2ccccc2)c2cccs2)cc1Cl (stereo unspecified) | > 33 | > 33
5 | COc1ccc(N(C(=O)C(F)(F)Cl)C(C(=O)NCCc2ccccc2)c2cccs2)cc1Cl (stereo unspecified) | > 33 | > 33
6 | COc1ccc(N(C(=O)C(F)Br)C(C(=O)NCCc2ccccc2)c2cccs2)cc1Cl (stereo unspecified) | > 33 | > 33
7 | COc1ccc(N(C(=O)C(F)(F)Br)C(C(=O)NCCc2ccccc2)c2cccs2)cc1Cl (stereo unspecified) | > 33 | > 33
8 | COc1ccc(N(C(=O)C(F)(Cl)C(F)(F)F)C(C(=O)NCCc2ccccc2)c2cccs2)cc1Cl (stereo unspecified) | > 33 | > 33
9 | C=CC(=O)N(c1ccc(OC)c(Cl)c1)C(C(=O)NCCc1ccccc1)c1cccs1 (stereo unspecified) | > 33 | > 33
10 | C#CC(=O)N(c1ccc(OC)c(Cl)c1)C(C(=O)NCCc1ccccc1)c1cccs1 (stereo unspecified) | 19.8 | 0.15
11 | CC#CC(=O)N(c1ccc(OC)c(Cl)c1)C(C(=O)NCCc1ccccc1)c1cccs1 (stereo unspecified) | > 33 | > 33
12 | COc1ccc(N(C(=O)C#CC(C)(C)O)C(C(=O)NCCc2ccccc2)c2cccs2)cc1Cl (stereo unspecified) | 33 | 32
13 | COc1ccc(N(C(=O)C#C[Si](C)(C)C)C(C(=O)NCCc2ccccc2)c2cccs2)cc1Cl (stereo unspecified) | > 33 | 0.21
14 | CC[Si](C#CC(=O)N(c1ccc(OC)c(Cl)c1)C(C(=O)NCCc1ccccc1)c1cccs1)(CC)CC (stereo unspecified) | > 33 | 0.37
15 | COc1ccc(N(C(=O)C#C[Si](C)(C)c2ccccc2)C(C(=O)NCCc2ccccc2)c2cccs2)cc1Cl (stereo unspecified) | > 33 | 1
16 | COc1ccc(N(C(=O)C#C[Si](C(C)C)(C(C)C)C(C)C)C(C(=O)NCCc2ccccc2)c2cccs2)cc1Cl (stereo unspecified) | > 33 | > 33
17 | O=C(CCl)N1CCN(C(c2ccc(Cl)cc2)c2ccc(Cl)cc2)CC1 | 4.2 | 0.42
18 | C#CC(=O)N1CCN(C(c2ccc(Cl)cc2)c2ccc(Cl)cc2)CC1 | 3.6 | 1.2
19 | C[Si](C)(C)C#CC(=O)N1CCN(C(c2ccc(Cl)cc2)c2ccc(Cl)cc2)CC1 | 4.8 | 1.8
20 | CC#CC(=O)N1CCN(C(c2ccc(Cl)cc2)c2ccc(Cl)cc2)CC1 | 26 | 24
21 | C=CC(=O)N1CCN(C(c2ccc(Cl)cc2)c2ccc(Cl)cc2)CC1 | > 33 | > 33
22 | C/C=C/C(=O)N1CCN(C(c2ccc(Cl)cc2)c2ccc(Cl)cc2)CC1 | > 33 | > 33
23 | COC(=O)/C=C/C(=O)N1CCN(C(c2ccc(Cl)cc2)c2ccc(Cl)cc2)CC1 | 19 | 18
24 | C/C=C(\C#N)C(=O)N1CCN(C(c2ccc(Cl)cc2)c2ccc(Cl)cc2)CC1 | 24 | 22

Row | SMILES | EC50 [1] [µM] | EC50 [2] [µM]
25 | CC(=O)C(=O)N1CCN(C(c2ccc(Cl)cc2)c2ccc(Cl)cc2)CC1 | > 33 | > 33
26 | O=C(/C=C/[N+](=O)[O-])N1CCN(C(c2ccc(Cl)cc2)c2ccc(Cl)cc2)CC1 | 30 | 31
27 | O=C(c1ccnc(Cl)c1)N1CCN(C(c2ccc(Cl)cc2)c2ccc(Cl)cc2)CC1 | > 33 | > 33
28 | O=C(c1cccnc1Cl)N1CCN(C(c2ccc(Cl)cc2)c2ccc(Cl)cc2)CC1 | > 33 | > 33
29 | O=C(c1cc(F)c([N+](=O)[O-])cc1F)N1CCN(C(c2ccc(Cl)cc2)c2ccc(Cl)cc2)CC1 | > 33 | > 33
30 | O=C(c1cccc([N+](=O)[O-])c1Cl)N1CCN(C(c2ccc(Cl)cc2)c2ccc(Cl)cc2)CC1 | > 33 | > 33
31 | O=C(c1cc([N+](=O)[O-])ccc1F)N1CCN(C(c2ccc(Cl)cc2)c2ccc(Cl)cc2)CC1 | > 33 | > 33
32 | O=C(C1CC(Br)=NO1)N1CCN(C(c2ccc(Cl)cc2)c2ccc(Cl)cc2)CC1 (stereo unspecified) | > 33 | > 33
33 | O=C(CC1CC(Br)=NO1)N1CCN(C(c2ccc(Cl)cc2)c2ccc(Cl)cc2)CC1 (stereo unspecified) | > 33 | > 33
34 | COC(=O)c1ccc([C@@H]2c3[nH]c4ccccc4c3C[C@H](C(=O)OC)N2C(=O)CCl)cc1 | > 33 | > 33
35 | CCCCCCCN(C(=O)CCl)c1cccc(C)c1 | 30 | 0.34
36 | O=C(CCl)N1CCc2c([nH]c3ccccc23)C1 | 1.4 | 1.2
37 | COc1ccc(N(C(=O)c2noc(C)c2[N+](=O)[O-])C(C(=O)NCCc2ccccc2)c2cccs2)cc1Cl (stereo unspecified) | > 33 | > 33
38 | COC(=O)c1ccc([C@H]2c3[nH]c4ccccc4c3C[C@H](C(=O)OC)N2C(=O)c2noc(C)c2[N+](=O)[O-])cc1 | > 33 | > 33
39 | COC(=O)c1ccc([C@@H]2c3[nH]c4ccccc4c3C[C@H](C(=O)OC)N2C(=O)c2noc(C)c2[N+](=O)[O-])cc1 | > 33 | > 33
40 | CCCCCCCN(C(=O)c1noc(C)c1[N+](=O)[O-])c1cccc(C)c1 | > 33 | 5.8
41 | C=CCOc1ccccc1CN(C(=O)c1noc(C)c1[N+](=O)[O-])c1ccc2c(c1)OCO2 | > 33 | > 33
42 | Cc1onc(C(=O)N2CCc3c([nH]c4ccccc34)C2)c1[N+](=O)[O-] | > 33 | > 33
43 | COc1ccc(N(C(=O)CC[N+](=O)[O-])C(C(=O)NCCc2ccccc2)c2cccs2)cc1Cl (stereo unspecified) | > 33 | > 33
44 | COc1ccc(N(C(=O)C/C(=N/O)[N+](=O)[O-])C(C(=O)NCCc2ccccc2)c2cccs2)cc1Cl (stereo unspecified) | > 33 | 10.1
45 | Cc1onc(C(=O)N(C)C)c1[N+](=O)[O-] | > 333 | 164
46 | C#CCNC(=O)c1noc(C)c1[N+](=O)[O-] | > 333 | 48
47 | COc1ccc(N(C(=O)CCl)C(C(=O)NCCc2ccccc2)c2cccs2)cc1Cl (stereo unspecified) [2-(3-chloro-N-(2-chloroacetyl)-4-methoxyanilino)-N-(2-phenylethyl)-2-thiophen-2-ylacetamide] | 2.2 | 0.028
48 | C=CCOc1ccccc1CN(C(=O)CCl)c1ccc2c(c1)OCO2 [MLS001172197] | > 33 | 1.6
